According to patent US11472791B2 (Incyte Corporation, priority 2019, dated 2022):

Target: CDK2/Cyclin E1 (Homo sapiens (Human), UniProt P24941)
Assay: CDK2/Cyclin E1 HTRF enzyme activity assay
Type: biochemical
Details: 1 mM ATP
Description: Assays are conducted in white 384-well polystyrene plates in a final reaction volume of 8 μL. […] HTRF signals are read after 1 hour at room temperature on a PHERAstar FS plate reader (BMG Labtech). Data is analyzed with IDBS XLFit and GraphPad Prism 5.0 software using a three or four parameter dose response curve to determine IC50 for each compound.

IC50, < 0.05 µM:
CC(C)(C(N)=O)n1cc(-c2nc(NC3CCN(S(C)(=O)=O)CC3)ncc2C(F)(F)F)cn1 [Example 30, 2-Methyl-2-(4-(2-((1-(methylsulfonyl)piperidin-4-yl)amino)-5-(trifluoromethyl)pyrimidin-4-yl)-1H-pyrazol-1-yl)propanamide]
Cc1nc(CN2CCN(C(C)C)CC2)ccc1-n1cc(-c2nc(N[C@H]3CCN(S(=O)(=O)c4cn(C)cn4)C[C@H]3C)ncc2C(F)(F)F)cn1 [Example 257, 4-(1-(6-((4-Isopropylpiperazin-1-yl)methyl)-2-methylpyridin-3-yl)-1H-pyrazol-4-yl)-N-((3R,4S)-3-methyl-1-((1-methyl-1H-imidazol-4-yl)sulfonyl)piperidin-4-yl)-5-(trifluoromethyl)pyrimidin-2-amine]
CS(=O)(=O)N1CCC(Nc2ncc(C(F)(F)F)c(-c3cnn(-c4ccccc4Cl)c3)n2)CC1 [Example 14, 4-(1-(2-Chlorophenyl)-1H-pyrazol-4-yl)-N-(1-(methylsulfonyl)piperidin-4-yl)-5-(trifluoromethyl)pyrimidin-2-amine]
CCCS(=O)(=O)N1CC[C@H](Nc2ncc(C#N)c(-c3cnn(-c4ccc(CNC)cc4Cl)c3)n2)[C@H](F)C1 [Example 118, 4-(1-(2-Chloro-4-((methylamino)methyl)phenyl)-1H-pyrazol-4-yl)-2-(((3R,4S)-3-fluoro-1-(propylsulfonyl)piperidin-4-yl)amino)pyrimidine-5-carbonitrile]
[2H]C([2H])([2H])NCc1ccc(-n2cc(-c3nc(NC4CCN(S(=O)(=O)C5CC5)CC4)ncc3Cl)cn2)c(Cl)c1 [Example 135, 5-Chloro-4-(1-(2-chloro-4-(((methyl-d3)amino)methyl)phenyl)-1H-pyrazol-4-yl)-N-(1-(cyclopropylsulfonyl)piperidin-4-yl)pyrimidin-2-amine]
COC(=O)N1CCC[C@H](NCc2ccc(-n3cc(-c4nc(NC5CCN(S(C)(=O)=O)CC5)ncc4C#N)cn3)c(Cl)c2)C1 [Example 167, Methyl (S)-3-((3-chloro-4-(4-(5-cyano-2-((1-(methylsulfonyl)piperidin-4-yl)amino)pyrimidin-4-yl)-1H-pyrazol-1-yl)benzyl)amino)piperidine-1-carboxylate]
CN1CCC(S(=O)(=O)N2CCC(Nc3ncc(C(F)(F)F)c(-c4cnn(CC(C)(C)O)c4)n3)CC2)CC1 [Example 87, 2-Methyl-1-(4-(2-((1-((1-methylpiperidin-4-yl)sulfonyl)piperidin-4-yl)amino)-5-(trifluoromethyl)pyrimidin-4-yl)-1H-pyrazol-1-yl)propan-2-ol]
CO[C@@H]1CCN(CCCS(=O)(=O)N2CC[C@H](Nc3ncc(C(F)(F)F)c(-c4cnn(CC(C)(C)O)c4)n3)[C@H](F)C2)C1 [Example 206, 1-(4-(2-(((3R,4S)-3-Fluoro-1-((3-((R)-3-methoxypyrrolidin-1-yl)propyl)sulfonyl)piperidin-4-yl)amino)-5-(trifluoromethyl)pyrimidin-4-yl)-1H-pyrazol-1-yl)-2-methylpropan-2-ol]
[2H]C([2H])([2H])NCc1ccc(-n2cc(-c3nc(N[C@H]4CCN(S(C)(=O)=O)C[C@H]4F)ncc3C(F)(F)F)cn2)c(C)c1 [Example 132, N-((3R,4S)-3-Fluoro-1-(methylsulfonyl)piperidin-4-yl)-4-(1-(2-methyl-4-(((methyl-d3)amino)methyl)phenyl)-1H-pyrazol-4-yl)-5-(trifluoromethyl)pyrimidin-2-amine]
C[C@]1(O)C[C@@H](NCc2ccc(-n3cc(-c4nc(NC5CCN(S(=O)(=O)C6CC6)CC5)ncc4C#N)cn3)c(Cl)c2)C1 [Example 285, 4-(1-(2-Chloro-4-((((1s,3s)-3-hydroxy-3-methylcyclobutyl)amino)methyl)phenyl)-1H-pyrazol-4-yl)-2-((1-(cyclopropylsulfonyl)piperidin-4-yl)amino)pyrimidine-5-carbonitrile]
C[C@]1(NCc2ccc(-n3cc(-c4nc(N[C@H]5CCN(S(=O)(=O)C6CC6)C[C@H]5F)ncc4C#N)cn3)c(Cl)c2)C[C@H](O)C1 [Example 155, 4-(1-(2-chloro-4-((((1r,3r)-3-hydroxy-1-methylcyclobutyl)amino)methyl)phenyl)-1H-pyrazol-4-yl)-2-(((3R,4S)-1-(cyclopropylsulfonyl)-3-fluoropiperidin-4-yl)amino)pyrimidine-5-carbonitrile]
CS(=O)(=O)N1CCC(Nc2ncc(C#N)c(-c3cnn(-c4ccc(CN[C@H]5CC[C@@H](CO)CC5)cc4Cl)c3)n2)CC1 [Example 289, 4-(1-(2-chloro-4-((((1s,4s)-4-(hydroxymethyl)cyclohexyl)amino)methyl)phenyl)-1H-pyrazol-4-yl)-2-((1-(methylsulfonyl)piperidin-4-yl)amino)pyrimidine-5-carbonitrile]
COC(=O)N[C@@H]1CC[C@@H](NCc2ccc(-n3cc(-c4nc(NC5CCN(S(C)(=O)=O)CC5)ncc4C#N)cn3)c(Cl)c2)C1 [Example 279, Methyl ((1R,3R)-3-((3-chloro-4-(4-(5-cyano-2-((1-(methylsulfonyl)piperidin-4-yl)amino)pyrimidin-4-yl)-1H-pyrazol-1-yl)benzyl)amino)cyclopentyl)carbamate]
CCNCc1ccc(-n2cc(-c3nc(N[C@H]4CCN(S(=O)(=O)c5cn(C)cn5)C[C@H]4C)ncc3C(F)(F)F)cn2)c(C)n1 [Example 271, 4-(1-(6-((Ethylamino)methyl)-2-methylpyridin-3-yl)-1H-pyrazol-4-yl)-N-((3R,4S)-3-methyl-1-((1-methyl-1H-imidazol-4-yl)sulfonyl)piperidin-4-yl)-5-(trifluoromethyl)pyrimidin-2-amine]
COC(=O)N[C@H]1CCC[C@@H]1NCc1ccc(-n2cc(-c3nc(NC4CCN(S(C)(=O)=O)CC4)ncc3C#N)cn2)c(Cl)c1 [Example 281, Methyl ((1,S,2S)-2-((3-chloro-4-(4-(5-cyano-2-((1-(methylsulfonyl)piperidin-4-yl)amino)pyrimidin-4-yl)-1H-pyrazol-1-yl)benzyl)amino)cyclopentyl)carbamate]
C[C@]1(O)CC[C@@H](NCc2ccc(-n3cc(-c4nc(NC5CCN(S(=O)(=O)C6CC6)CC5)ncc4C#N)cn3)c(Cl)c2)CC1 [Example 283, 4-(1-(2-Chloro-4-((((1s,4s)-4-hydroxy-4-methylcyclohexyl)amino)methyl)phenyl)-1H-pyrazol-4-yl)-2-((1-(cyclopropylsulfonyl)piperidin-4-yl)amino)pyrimidine-5-carbonitrile]
CCN1CCN(Cc2ccc(-n3cc(-c4nc(NC5CCN(S(=O)(=O)c6cn(C)cn6)CC5)ncc4C#N)cn3)c(Cl)c2)CC1 [Example 241, 4-(1-(2-Chloro-4-((4-ethylpiperazin-1-yl)methyl)phenyl)-1H-pyrazol-4-yl)-2-((1-((1-methyl-1H-imidazol-4-yl)sulfonyl)piperidin-4-yl)amino)pyrimidine-5-carbonitrile]
